Measurements published in patent US12653809B2, “Urea, amide, and substituted heteroaryl compounds for CBL-B inhibition” (Nurix Therapeutics, Inc., priority 2019, dated 2026).
Like-named read-outs stand apart in the source and are kept apart here.

Target: T1, Cbl-b (truncated variant, UniProt number Q13191) (Homo sapiens, UniProt Q13191)
T1 construct: made in house
Experiment: Cbl-b activity assay (TR-FRET, interaction of Cbl-b with UbcH5B-Ub)
Format: biochemical
Source text: As described in Biological Example 1A, a Cbl-b activity assay (Cbl-b inhibition assay) used to measure the IC50 values for Cbl-b inhibition uses a mixture comprising candidate compound, Cbl-b (truncated, with an Avitag, and biotinylated), a fluorescently-labeled E2 enzyme UbcH5B labelled with ubiquitin conjugated to BODIPY-fluorescein (UbcH5B-Ub), streptavidin-terbium, and assay buffer. In one embodiment, the Cbl-b activity assay (Cbl-b inhibition assay) used to measure IC50 for inhibition of Cbl-b uses the conditions described in Biological Example 1A with 12 nM Cbl-b. […] In another embodiment, the Cbl-b activity assay (Cbl-b inhibition assay) used to measure IC50 for inhibition of Cbl-b uses the conditions described in Biological Example 1B, with candidate compound, 0.125 nM Cbl-b (truncated, with an avitag, and biotinylated), fluorescently labelled inhibitor probe, and assay buffer. Displacement of the inhibitor probe indicates Cbl-b activity.
Candidate compounds isolated from screening assays were evaluated for their ability to bind and inhibit Cbl-b, an E3 ubiquitin-protein ligase.
The ability of candidate compounds to inhibit Cbl-b activity was measured by monitoring the interaction of Cbl-b with UbcH5B-Ub in the presence of the candidate compound. A truncated variant of Cbl-b (UniProt number Q13191; SEQ ID NO:1) containing an Avitag at its N-terminus was co-expressed with BirA biotin ligase and purified using a standard protocol (see Dou et al., Nature Structural and Molecular Biology 8: 982-987, 2013; Avidity LLC).
Fluorescently labeled UbcH5B-Ub was prepared by conjugating ubiquitin (Ub), labeled at its N-terminus with Bodipy-Fluorescein, to UbcH5B, an E2 enzyme, harboring a cysteine to lysine mutation at position 85. This mutation is similar to a mutation that was previously reported (see Dou et al., Nature Structural and Molecular Biology 8: 982-987, 2013). Cbl-b activity assays were performed in a 384-well plate at room temperature in a 10 μL reaction volume by pre-incubating 12 nM Cbl-b (final concentration) in an assay buffer containing 50 mM HEPES pH 7.0, 100 mM NaCl, 0.01% Triton X-100, 0.01% BSA, and 1 mM DTT in the presence of a candidate compound in 1% DMSO (final concentration, High Conditions) for one hour. After incubation in the presence of the candidate compound, the plate was incubated for an additional 1.5 hours in the presence of 60 nM Src kinase with 1 mM ATP and 5 mM MgCl2 (final concentrations). Alternatively, compounds were tested as described above with assay buffer containing 50 mM NaCl instead of 100 mM NaCl and 30 nM Src kinase instead of 60 nM Src kinase (Low Conditions). Src kinase was prepared as previously described (see Kobashigawa et al., Proc Natl Acad Sci USA, 108: 20579-20584, 2011). […] The plate was incubated for one hour. Following the one hour incubation, the plates were read for TR-FRET signal at 520/620 nm using Envision plate reader (Perkin Elmer). The presence of a FRET signal that indicated Cbl-b was not inhibited by the compound candidate. The absence of a FRET signal indicated Cbl-b was inhibited by the compound candidate and was therefore a Cbl-b inhibitor.
The resulting data for the Cbl-b activity assays were analyzed using standard methods to report the IC50 values of the tested compounds (Tables 3-4). The resulting data for the Cbl-b binding assay was solvent corrected and double-referenced prior to analysis. All data were globally fit to a steady-state affinity and kinetic binding model where applicable. Compounds were ranked into bins A through D as follows for IC50: A indicates <0.1 μM, B indicates 0.1 μM≤IC50<1 μM, C indicates 1 μM≤IC50<5 μM, and D indicates 5 μM≤IC50.

[1] = Biological Example 1A, low or high conditions not stated, read-out: IC50 values in the Cbl-b inhibition assay of Biological Example 1A
[2] = high conditions: 100 mM NaCl, 60 nM Src kinase, 12 nM Cbl-b, read-out: Cbl-b activity IC50

T1 sequence (Q13191 36-427): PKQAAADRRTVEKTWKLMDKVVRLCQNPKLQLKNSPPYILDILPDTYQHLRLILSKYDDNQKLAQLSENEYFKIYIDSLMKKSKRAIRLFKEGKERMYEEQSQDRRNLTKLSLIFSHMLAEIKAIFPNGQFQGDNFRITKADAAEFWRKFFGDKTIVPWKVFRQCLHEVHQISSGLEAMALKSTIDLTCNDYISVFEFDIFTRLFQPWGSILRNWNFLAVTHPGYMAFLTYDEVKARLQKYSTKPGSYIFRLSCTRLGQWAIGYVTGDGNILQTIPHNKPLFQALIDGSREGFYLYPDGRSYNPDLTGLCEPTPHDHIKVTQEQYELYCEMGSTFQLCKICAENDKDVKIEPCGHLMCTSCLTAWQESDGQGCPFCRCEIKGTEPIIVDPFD

IC50 [1]	IC50 [2]	Compound
1 to 5 µM	1 to 5 µM	CNC(=O)C1(C(F)(F)F)CCN(C(=O)Nc2cccc([C@H](C)Sc3nncn3C)c2)C1 (stereo partly drawn) [Example 50, N^3-methyl-N^1-(3-((S)-1-((4-methyl-4H-1,2,4-triazol-3-yl)thio)ethyl)phenyl)-3-(trifluoromethyl)pyrrolidine-1,3-dicarboxamide]
	≥ 5 µM	CC(C)C1CN(C(=O)Nc2cccc([C@H](C)Sc3nncn3C)c2)CCO1 (stereo partly drawn) [Example 51, 2-isopropyl-N-(3-((S)-1-((4-methyl-4H-1,2,4-triazol-3-yl)thio)ethyl)phenyl)morpholine-4-carboxamide]
	≥ 5 µM	C[C@H](Sc1nncn1C)c1cccc(NC(=O)N2CC(OC(F)(F)F)C2)c1 [Example 52, (S)—N-(3-(1-((4-methyl-4H-1,2,4-triazol-3-yl)thio)ethyl)phenyl)-3-(trifluoromethoxy)azetidine-1-carboxamide]
	≥ 5 µM	C[C@H](Sc1nncn1C)c1cccc(NC(=O)N2CC(c3cnn(C)c3)C(C)(C)C2)c1 (stereo partly drawn) [Example 53, 3,3-dimethyl-4-(1-methyl-1H-pyrazol-4-yl)-N-(3-((S)-1-((4-methyl-4H-1,2,4-triazol-3-yl)thio)ethyl)phenyl)pyrrolidine-1-carboxamide]
	≥ 5 µM	CC1CN(C(=O)Nc2cccc([C@H](C)Sc3nncn3C)c2)CC1CO (stereo partly drawn) [Example 54, 3-(hydroxymethyl)-4-methyl-N-(3-((S)-1-((4-methyl-4H-1,2,4-triazol-3-yl)thio)ethyl)phenyl)pyrrolidine-1-carboxamide]
	1 to 5 µM	Cc1ccc(-c2cc(-c3cccc([C@H](C)Sc4nncn4C)c3)on2)cc1 [Example 55, (S)-5-(3-(1-(4-methyl-4H-1,2,4-triazol-3-ylthio)ethyl)phenyl)-3-p-tolylisoxazole]
	1 to 5 µM	Cc1cccc(-c2cc(-c3cccc([C@H](C)Sc4nncn4C)c3)on2)c1 [Example 56, 4-methyl-3-[[(1S)-1-[3-[3-(3-methylphenyl)-1,2-oxazol-5-yl]phenyl]ethyl]sulfanyl]-4H-1,2,4-triazole]
	1 to 5 µM	C[C@H](Sc1nncn1C)c1cccc(-c2cc(-c3ccc(Cl)cc3)no2)c1 [Example 57, (S)-3-(4-chlorophenyl)-5-(3-(1-((4-methyl-4H-1,2,4-triazol-3-yl)thio)ethyl)phenyl)isoxazole]
	1 to 5 µM	C[C@H](Sc1nncn1C)c1cccc(-c2cc(-c3cccc(Cl)c3)no2)c1 [Example 58, 3-[[(1S)-1-[3-[3-(3-chlorophenyl)-1,2-oxazol-5-yl]phenyl]ethyl]sulfanyl]-4-methyl-4H-1,2,4-triazole]
	1 to 5 µM	COc1ccc(-c2cc(-c3cccc([C@H](C)Sc4nncn4C)c3)on2)cc1 [Example 59, (S)-3-(4-methoxyphenyl)-5-(3-(1-((4-methyl-4H-1,2,4-triazol-3-yl)thio)ethyl)phenyl)isoxazole]
	1 to 5 µM	COc1cccc(-c2cc(-c3cccc([C@H](C)Sc4nncn4C)c3)on2)c1 [Example 60, (S)-3-(3-methoxyphenyl)-5-(3-(1-((4-methyl-4H-1,2,4-triazol-3-yl)thio)ethyl)phenyl)isoxazole]
	1 to 5 µM	C[C@H](Sc1nncn1C)c1cccc(-c2cc(-c3ccc(C#N)cc3)no2)c1 [Example 61, (S)-4-(5-(3-(1-(4-methyl-4H-1,2,4-triazol-3-ylthio)ethyl)phenyl)isoxazol-3-yl)benzonitrile]
	1 to 5 µM	C[C@H](Sc1nncn1C)c1cccc(-c2cc(-c3cccc(C#N)c3)no2)c1 [Example 62, (S)-3-(5-(3-(1-(4-methyl-4H-1,2,4-triazol-3-ylthio)ethyl)phenyl)isoxazol-3-yl)benzonitrile]
≥ 5 µM	≥ 5 µM	C[C@H](Sc1nncn1C)c1cccc(-c2cc(-c3ccc(C(=O)O)cc3)no2)c1 [Example 63, 4-(5-{3-[(1S)-1-[(4-methyl-4H-1,2,4-triazol-3-yl)sulfanyl]ethyl]phenyl}-1,2-oxazol-3-yl)benzoic acid]
1 to 5 µM	1 to 5 µM	C[C@H](Sc1nncn1C)c1cccc(-c2cc(-c3ccc(CO)cc3)no2)c1 [Example 64, (S)-(4-(5-(3-(1-(4-methyl-4H-1,2,4-triazol-3-ylthio)ethyl)phenyl)isoxazol-3-yl)phenyl)methanol]
1 to 5 µM	1 to 5 µM	CNC(=O)c1ccc(-c2cc(-c3cccc([C@H](C)Sc4nncn4C)c3)on2)cc1 [Example 65, (S)—N-methyl-4-(5-(3-(1-(4-methyl-4H-1,2,4-triazol-3-ylthio)ethyl)phenyl)isoxazol-3-yl)benzamide]
≥ 5 µM	≥ 5 µM	C[C@H](Sc1nncn1C)c1cccc(-c2cc(-c3ccc(S(C)(=O)=O)cc3)no2)c1 [Example 66, ((S)-5-(3-(1-(4-methyl-4H-1,2,4-triazol-3-yl)thio)ethyl)phenyl)-3-(4-(methylsulfonyl)phenyl)isoxazole]
1 to 5 µM	1 to 5 µM	C[C@H](Sc1nncn1C)c1cccc(-c2cc(-c3ccccc3)no2)c1 [Example 67, (S)-5-(3-(1-((4-methyl-4H-1,2,4-triazol-3-yl)thio)ethyl)phenyl)-3-phenylisoxazole]
≥ 5 µM	≥ 5 µM	C[C@@H](Sc1nncn1C)c1cccc(-c2cc(-c3ccccc3)no2)c1 [Example 68, (R)-5-(3-(1-((4-methyl-4H-1,2,4-triazol-3-yl)thio)ethyl)phenyl)-3-phenylisoxazole]
1 to 5 µM	1 to 5 µM	CC(Sc1nncn1C)c1cccc(-c2cc(-c3cccc(C(F)(F)F)c3)no2)c1 (stereo not drawn) [Example 69, 5-(3-(1-((4-methyl-4H-1,2,4-triazol-3-yl)thio)ethyl)phenyl)-3-(3-(trifluoromethyl)phenyl)isoxazole]
≥ 5 µM	≥ 5 µM	CC(Sc1nncn1C)c1cccc(-c2cc(-c3ccccn3)no2)c1 (stereo not drawn) [Example 70, 5-(3-(1-((4-methyl-4H-1,2,4-triazol-3-yl)thio)ethyl)phenyl)-3-(pyridin-2-yl)isoxazole]
≥ 5 µM	≥ 5 µM	CC(Sc1nncn1C)c1ccnc(-c2cc(-c3ccccc3)no2)c1 (stereo not drawn) [Example 71, 5-(4-(1-((4-methyl-4H-1,2,4-triazol-3-yl)thio)ethyl)pyridin-2-yl)-3-phenylisoxazole]
1 to 5 µM	1 to 5 µM	C[C@H](Sc1nncn1C)c1cccc(-n2ncc(-c3ccc(Cl)cc3)n2)c1 [Example 72, (S)-4-(4-chlorophenyl)-2-(3-(1-((4-methyl-4H-1,2,4-triazol-3-yl)thio)ethyl)phenyl)-2H-1,2,3-triazole]
1 to 5 µM	1 to 5 µM	C[C@H](Sc1nncn1C)c1cccc(-n2cc(-c3ccc(Cl)cc3)nn2)c1 [Example 73, (S)-4-(4-chlorophenyl)-1-(3-(1-((4-methyl-4H-1,2,4-triazol-3-yl)thio)ethyl)phenyl)-1H-1,2,3-triazole]
0.1 to 1 µM	0.1 to 1 µM	COc1ccc(-c2cnn(-c3cccc([C@H](C)Sc4nncn4C)c3)n2)cc1 [Example 74, (S)-4-(4-methoxyphenyl)-2-(3-(1-((4-methyl-4H-1,2,4-triazol-3-yl)thio)ethyl)phenyl)-2H-1,2,3-triazole]
	1 to 5 µM	COc1ccc(-c2cn(-c3cccc([C@H](C)Sc4nncn4C)c3)nn2)cc1 [Example 75, (S)-4-(4-methoxyphenyl)-1-(3-(1-((4-methyl-4H-1,2,4-triazol-3-yl)thio)ethyl)phenyl)-1H-1,2,3-triazole]
